Experimental data reported in patent US12285408B2, “Methods and compositions for the treatment of snake bite” (priority 2021, dated 2025).
Read-outs that look alike come from different tables or passages of the source.

Assays:
[1] = test system: procoagulant activities of viper venoms (E. ocellatus, E. carinatus, B. asper, D. russelii); test: Plasma clotting assay, neutralization of procoagulant venom activity; format: biochemical; details: for IC50: range across all venoms, 100 ng venom, bovine plasma, read-out: IC50, inhibition of procoagulant activity
From the text: FIG. 11. SVMP-inhibitors neutralize the in vitro procoagulant activities of several geographically distinct viper venoms. […] The data presented represents the maximum clotting velocity, calculated as the maximum of the first derivative of each clotting curve, from triplicate independent repeat experiments with SEMs, where each technical repeat represents the mean of n≥2 technical replicates. EOC, E. ocellatus; ECAR, E. carinatus; BAS, Bothrops asper, BAR, Bitis arietans; DRUS, Daboia russelii. (B) Neutralization of procoagulant venom activity by four SVMP-inhibitors across four drug concentrations (150 μM to 150 nM). The data is expressed as the maximum clotting velocity at each dose. The negative (PBS) and positive (venom-only) controls are presented as intervals (bottom dashed and top dashed lines, respectively), with the latter representing the mean maximum clotting velocity in these samples±SEM. The data represent triplicate independent repeats with SEMs, where each technical repeat represents the mean of n≥2 technical replicates. Note the different y-axis scales.
Since SVMPs are key toxins associated with causing coagulopathy, we next investigated whether the same peptidomimetic and metal chelating inhibitors could also neutralize the procoagulant bioactivities of viper venoms. To do so, we used a validated kinetic absorbance-based assay monitoring plasma clotting^35 in the presence or absence of venoms and inhibitors (FIG. 11).
(§1) We used a previously developed plasma clotting assay^35 to measure venom-induced coagulation. Briefly, 100 ng of each venom was incubated at 37° C. for 30 min in the presence or absence of inhibitors (150 μM to 150 nM final concentrations). The final reaction consisted of 10 μl venom±inhibitors in PBS, 20 μl 20 mM CaCl2), and 20 μl citrated bovine plasma (VWR). The samples were pipetted in triplicate into 384-well plates, and absorbance monitored at 595 nm for 2 h at 25° C. on an Omega FLUOstar instrument. We calculated the maximum clotting velocity of each of the curves as per clot waveform analysis^67, by calculating the maximum of the first derivative. The means of at least three independent experimental runs for each condition were plotted at each inhibitor concentration with SEMs.

[2] = test system: D. russelii venom coagulation-related activities; test: Plasma clotting assay, whole D. russelii venom; format: biochemical, Daboia russelii; details: 150 μM to 150 nM
Description: (§2) FIG. 12. […] The data is plotted separately for ‘very fast coagulation’, ‘medium coagulation’ and ‘anticoagulation’, based on the slopes of the 0-5 min and 0-20 min readings, and the single endpoint reading at 180 min. The tested inhibitor concentrations are presented alongside the chromatograms. […] The data is presented as the maximal clotting velocity at each concentration, and represents means of triplicate independent repeats with SEMs, where each technical repeat represents the mean of n≥2 technical replicates. The venom-only control (top dashed lines) and the negative control (bottom dashed lines) are presented as intervals and represent the average±SEM observed for the venom-only and PBS controls across all datasets and replicates.
as §1, with “The final reaction consisted of 10 μl venom±inhibitors in PBS, 20 μl 20 mM CaCl2), and 20 μl citrated bovine plasma (VWR).” left out, “The means of at least three independent experimental runs for each condition were plotted at each inhibitor concentration with SEMs.” left out

[3] = test system: procoagulant and anticoagulant toxins fractionated from D. russelii venom; test: Nanofractionation of D. russelii venom with plasma coagulation assay; format: biochemical, Daboia russelii; details: inhibitor 20 μM to 0.0064 μM
Description: as §2
Fifty microlitres of venom solution (D. russelii; 1 mg/ml) was injected into a Shimadzu LC-2010 system with nanofractionation in parallel. Separation was performed on a Waters XBridge reversed-phase C18 column (250×4.6 mm column with 3.5 μm pore-size) at 30° C. The total flow rate of the mobile phase solution was 0.5 ml/min with eluent A (98% H2O, 2% acetonitrile [ACN], 0.1% formic acid [FA]) and eluent B (98% ACN, 2% H2O, 0.1% FA). Liquid chromatography gradients consisted of a linear increase of mobile phase B from 0 to 50% in 20 min, followed by a linear increase to 90% B in 4 min, then isocratic at 90% B for 5 min, after which the percentage of mobile phase B was decreased from 90% to 0% in 1 min, followed by 10 min at 0% B to re-equilibrate. The effluent was split in a 1:9 ratio of which the 10% fraction was sent to a Shimadzu SPD-M20A prominence diode array detector and the 90% fraction was directed to a nanofractionation collector which dispensed the fractions into transparent 384-well plates (F-bottom, rounded square well, polystyrene, without lid, clear, non-sterile; Greiner Bio One, Alphen aan den Rijn, The Netherlands) at a resolution of 6 s/well. […]
The final assay concentrations of the inhibitors tested in the assay were 20 μM, 4 μM, 0.8 μM, 0.16 μM, 0.032 μM and 0.0064 μM. […] The plate was then read immediately for absorbance kinetically for 100 min at 595 nm at 25° C. using a Varioskan™ Flash Multimode Reader (Thermo Fisher Scientific, Ermelo, The Netherlands). The obtained results were normalized by dividing the slope measured in each well by the median of all slope values across the plate, and the processed coagulation chromatograms were plotted to visualize very fast coagulation, medium increased coagulation and anticoagulation, as previously described^37.

[4] = cited from earlier work

Row | SMILES | neutralization of procoagulant activities ([1]; E. ocellatus, E. carinatus and B. asper venoms, highest dose 150 μM) | IC50 [1] [nM] | effect on procoagulant activity of whole D. russelii venom [2] | inhibition of anticoagulant fractions of D. russelii venom [3] | inhibition of procoagulant fractions of D. russelii venom [3] | oral bioavailability ([4]; human, in vivo, po) [%] | oral bioavailability (words) ([4]; human, in vivo, po) | oral bioavailability (words) ([4]; human, in vivo, po, listed as Marimastat) | half-life ([4]; oral) [h] | time to peak plasma concentrations post-administration ([4]; oral) [h] | half-life ([4]; delivered by iv infusion) [h]
1 | O=S(=O)(O)CC(S)CS (stereo not shown) [DMPS, 2,3-dimercapto-1-propanesulfonic acid] | effective at neutralizing the procoagulant activities | 800 to 25900 | ineffective |  |  |  |  |  |  |  | 
2 | CNC(=O)[C@@H](NC(=O)[C@H](CC(C)C)[C@H](O)C(=O)NO)C(C)(C)C [marimastat] |  | 150 to 1920 | revealed clear venom anticoagulant effects | not neutralized by this inhibitor at any of the tested concentrations | effectively inhibited in a dose-dependent manner | 70 | excellent oral bioavailability | particularly good oral bioavailability | 8 to 10 | 1.5 to 3 | 
3 | CCc1c(C(=O)C(N)=O)c2c(OCC(=O)O)cccc2n1Cc1ccccc1 [varespladib] |  |  |  | effectively inhibited the anticoagulant activity | some inhibitory effect against procoagulant venom toxins, but only at very high doses (20 μM) |  | good oral bioavailability |  |  |  | 5
